Consider 27 molecules from US11479559B2, “Urea-substituted aromatic ring-linked dioxinoquinoline compounds, preparation method and uses thereof” (BEIJING SCITECH-MQ PHARMACEUTICALS LIMITED, priority 2018, dated 2022).

A word on the IC50: it is the concentration at which inhibition is half-maximal.

The target in assay [1] is VEGFR2 tyrosine kinase (Homo sapiens (Human), UniProt P35968). The assay can be described thus: Assay of small molecular compounds for inhibiting the activity of VEGFR-2 kinase (LANCE TR-FRET).
Procedure: The assay is based on the LANCE TR-FRET technology of Perkin Elmer Inc., and the assay method is as follows:
2.5 μL of the gradient-diluted compounds were taken with a transfer pipette to a 384-well plate.
Addition of enzyme: 5 μL of 2× VEGFR2 kinase solution (concentration was 0.5 nM) was taken with a transfer pipette to the corresponding reaction well of the 384-well plate, mixed well and pre-reacted at room temperature for 30 minutes.
2.5 μL 4× Ultra ULight™-JAK-1 (Tyr1023) Peptide (concentration was 200 nM)/ATP (concentration was 40 μMM) mixture was taken with a transfer pipette to the corresponding reaction well of the 384-well plate.
Negative control: 2.5 μL/well 4× substrate/ATP mixture and 7.5 μL 1× Kinase Assay Buffer were added to the wells of the 384-well plate.
The final concentration of DMSO in the reaction system was 4%.
The mixture was mixed well and then centrifuged and reacted at room temperature in dark for 60 min.
The 384-well plate was placed into the Envision plate reader and the signal was detected using the appropriate program.
The target of assay [2] is RET tyrosine kinase (Homo sapiens (Human), UniProt P07949). As to the kind of experiment: Assay of small molecular compounds for inhibiting the activity of RET kinase (LANCE TR-FRET).

Where two headings read alike, the source gives them in different places.

RET tyrosine kinase, sequence (P07949 29-1114): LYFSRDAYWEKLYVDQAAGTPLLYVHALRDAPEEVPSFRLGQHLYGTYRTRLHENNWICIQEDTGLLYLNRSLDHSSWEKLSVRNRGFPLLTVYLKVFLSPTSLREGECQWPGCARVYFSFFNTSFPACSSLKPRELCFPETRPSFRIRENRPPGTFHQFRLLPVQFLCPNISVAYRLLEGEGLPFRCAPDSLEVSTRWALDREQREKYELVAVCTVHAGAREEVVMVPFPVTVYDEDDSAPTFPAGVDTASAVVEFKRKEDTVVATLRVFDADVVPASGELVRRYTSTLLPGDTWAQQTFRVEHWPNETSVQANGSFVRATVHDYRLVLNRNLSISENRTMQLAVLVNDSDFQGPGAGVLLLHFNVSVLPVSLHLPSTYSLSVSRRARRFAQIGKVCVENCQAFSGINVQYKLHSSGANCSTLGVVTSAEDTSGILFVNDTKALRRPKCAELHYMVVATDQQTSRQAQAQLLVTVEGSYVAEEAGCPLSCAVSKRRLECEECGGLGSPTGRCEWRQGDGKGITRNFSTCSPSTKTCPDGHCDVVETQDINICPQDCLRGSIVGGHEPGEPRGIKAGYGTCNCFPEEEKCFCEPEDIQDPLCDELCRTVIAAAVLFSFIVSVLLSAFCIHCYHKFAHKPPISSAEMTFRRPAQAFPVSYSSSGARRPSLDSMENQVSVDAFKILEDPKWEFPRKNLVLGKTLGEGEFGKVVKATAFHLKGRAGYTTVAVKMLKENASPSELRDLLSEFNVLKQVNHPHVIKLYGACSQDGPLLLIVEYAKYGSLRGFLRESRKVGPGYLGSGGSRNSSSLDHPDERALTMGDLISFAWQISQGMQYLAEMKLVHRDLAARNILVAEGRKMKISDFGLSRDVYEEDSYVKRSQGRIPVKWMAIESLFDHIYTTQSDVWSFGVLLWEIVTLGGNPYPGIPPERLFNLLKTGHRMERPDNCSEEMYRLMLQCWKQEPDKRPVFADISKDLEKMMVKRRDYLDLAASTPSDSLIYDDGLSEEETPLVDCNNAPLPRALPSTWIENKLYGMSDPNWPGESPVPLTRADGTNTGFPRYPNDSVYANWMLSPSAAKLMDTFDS
VEGFR2 tyrosine kinase, sequence (P35968 20-1356): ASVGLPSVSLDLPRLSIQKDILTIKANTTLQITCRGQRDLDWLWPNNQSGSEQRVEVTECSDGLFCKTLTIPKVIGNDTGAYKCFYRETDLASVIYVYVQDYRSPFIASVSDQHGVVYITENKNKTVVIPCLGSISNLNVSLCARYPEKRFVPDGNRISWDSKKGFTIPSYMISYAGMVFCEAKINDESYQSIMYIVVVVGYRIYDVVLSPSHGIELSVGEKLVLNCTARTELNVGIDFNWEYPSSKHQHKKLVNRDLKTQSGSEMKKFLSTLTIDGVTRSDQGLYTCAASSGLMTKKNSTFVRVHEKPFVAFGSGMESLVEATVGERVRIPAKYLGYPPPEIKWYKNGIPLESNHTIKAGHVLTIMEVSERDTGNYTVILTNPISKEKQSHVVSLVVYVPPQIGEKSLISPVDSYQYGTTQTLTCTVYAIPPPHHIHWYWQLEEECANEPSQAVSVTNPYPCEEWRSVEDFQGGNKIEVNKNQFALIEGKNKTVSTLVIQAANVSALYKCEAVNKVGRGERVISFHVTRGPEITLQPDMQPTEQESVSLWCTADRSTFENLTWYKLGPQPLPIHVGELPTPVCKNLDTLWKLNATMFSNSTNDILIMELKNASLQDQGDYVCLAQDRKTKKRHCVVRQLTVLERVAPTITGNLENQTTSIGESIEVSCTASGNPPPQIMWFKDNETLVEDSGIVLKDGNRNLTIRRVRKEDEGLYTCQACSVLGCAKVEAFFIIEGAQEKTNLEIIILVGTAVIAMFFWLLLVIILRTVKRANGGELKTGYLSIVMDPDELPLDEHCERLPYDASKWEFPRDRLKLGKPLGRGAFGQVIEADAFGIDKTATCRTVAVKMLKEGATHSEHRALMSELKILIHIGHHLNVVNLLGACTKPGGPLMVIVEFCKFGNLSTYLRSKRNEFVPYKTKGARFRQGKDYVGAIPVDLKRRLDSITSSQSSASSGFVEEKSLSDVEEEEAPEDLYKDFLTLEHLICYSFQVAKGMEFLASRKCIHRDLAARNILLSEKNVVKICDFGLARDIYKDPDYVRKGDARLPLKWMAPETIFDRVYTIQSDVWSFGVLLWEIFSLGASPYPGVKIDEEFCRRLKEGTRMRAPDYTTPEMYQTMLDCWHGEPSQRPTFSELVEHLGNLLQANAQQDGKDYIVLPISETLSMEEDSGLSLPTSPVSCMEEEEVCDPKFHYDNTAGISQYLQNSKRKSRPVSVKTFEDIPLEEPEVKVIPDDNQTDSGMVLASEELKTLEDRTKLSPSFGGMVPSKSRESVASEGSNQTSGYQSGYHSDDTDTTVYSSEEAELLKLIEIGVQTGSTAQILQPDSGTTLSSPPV

As to `COCCOc1cc2nccc(Oc3ccc(NC(=O)NC4CC4)c(Cl)c3)c2c2c1OCCO2` [Example 49, 1-(2-chloro-4-((5-(2-methoxyethoxy)-2,3-dihydro-[1,4]dioxino[2,3-f]quinolin-10-yl)oxy)phenyl)-3-cyclopropylurea], the IC50 in assay [1] (read-out: VEGFR-2 IC50) and in assay [2] (read-out: RET IC50) was under 50 nM in each case.
In the case of `O=C(Nc1ccc(Oc2ccnc3cc(OCCCO)c4c(c23)OCCO4)cc1Cl)NC1CC1` [Example 50, 1-(2-chloro-4-((5-(3-hydroxypropoxy)-2,3-dihydro-[1,4]dioxino[2,3-f]quinolin-10-yl)oxy)phenyl)-3-cyclopropylurea], the IC50 in assay [1] (read-out: VEGFR-2 IC50) and in assay [2] (read-out: RET IC50) was under 50 nM throughout.
`COCCCOc1cc2nccc(Oc3ccc(NC(=O)NC4CC4)c(Cl)c3)c2c2c1OCCO2` [Example 51, 1-(2-chloro-4-((5-(3-methoxypropoxy)-2,3-dihydro-[1,4]dioxino[2,3-f]quinolin-10-yl)oxy)phenyl)-3-cyclopropylurea]: the IC50 in assay [1] (read-out: VEGFR-2 IC50) and in assay [2] (read-out: RET IC50) was under 50 nM throughout.
Turning to `CN(C)CCCOc1cc2nccc(Oc3ccc(NC(=O)NC4CC4)c(Cl)c3)c2c2c1OCCO2` [Example 52, 1-(2-chloro-4-((5-(3-(dimethylamino)propoxy)-2,3-dihydro-[1,4]dioxino[2,3-f]quinolin-10-yl)oxy)phenyl)-3-cyclopropylurea], the IC50 in assay [1] (read-out: VEGFR-2 IC50) and in assay [2] (read-out: RET IC50) was under 50 nM in each case.
For `O=C(Nc1ccc(Oc2ccnc3cc(OCCCN4CCCC4)c4c(c23)OCCO4)cc1Cl)NC1CC1` [Example 53, 1-(2-chloro-4-((5-(3-(pyrrolidin-1-yl)propoxy)-2,3-dihydro-[1,4]dioxino[2,3-f]quinolin-10-yl)oxy)phenyl)-3-cyclopropylurea], the IC50 in assay [1] (read-out: VEGFR-2 IC50) and in assay [2] (read-out: RET IC50) was under 50 nM in each case.
Consider `O=C(Nc1ccc(Oc2ccnc3cc(OCCCN4CCCCC4)c4c(c23)OCCO4)cc1Cl)NC1CC1` [Example 54, 1-(2-chloro-4-((5-(3-(piperidin-1-yl)propoxy)-2,3-dihydro-[1,4]dioxino[2,3-f]quinolin-10-yl)oxy)phenyl)-3-cyclopropylurea], for which the IC50 in assay [1] (read-out: VEGFR-2 IC50) and in assay [2] (read-out: RET IC50) was under 50 nM throughout.
For the molecule `O=C(Nc1ccc(Oc2ccnc3cc(OCCCN4CCOCC4)c4c(c23)OCCO4)cc1Cl)NC1CC1` [Example 55, 1-(2-chloro-4-((5-(3-morpholinopropoxy)-2,3-dihydro-[1,4]dioxino[2,3-f]quinolin-10-yl)oxy)phenyl)-3-cyclopropylurea], the IC50 in assay [1] (read-out: VEGFR-2 IC50) and in assay [2] (read-out: RET IC50) was under 50 nM in each case.
For `CN1CCN(CCCOc2cc3nccc(Oc4ccc(NC(=O)NC5CC5)c(Cl)c4)c3c3c2OCCO3)CC1` [Example 56, 1-(2-chloro-4-((5-(3-(4-methylpiperazin-1-yl)propoxy)-2,3-dihydro-[1,4]dioxino[2,3-f]quinolin-10-yl)oxy)phenyl)-3-cyclopropylurea], the IC50 in assay [1] (read-out: VEGFR-2 IC50) and in assay [2] (read-out: RET IC50) was under 50 nM in each case.
Consider `CC(=O)N1CCN(CCCOc2cc3nccc(Oc4ccc(NC(=O)NC5CC5)c(Cl)c4)c3c3c2OCCO3)CC1` [Example 57, 1-(4-((5-(3-(4-acetylpiperazin-1-yl)propoxy)-2,3-dihydro-[1,4]dioxino[2,3-f]quinolin-10-yl)oxy)-2-chlorophenyl)-3-cyclopropylurea], for which the IC50 in assay [1] (read-out: VEGFR-2 IC50) and in assay [2] (read-out: RET IC50) was under 50 nM each time.
In the case of `O=C(Nc1ccc(Oc2ccnc3cc(OCCCN4CCS(=O)(=O)CC4)c4c(c23)OCCO4)cc1Cl)NC1CC1` [Example 58, 1-(2-chloro-4-((5-(3-(1,1-dioxothiomorpholino)propoxy)-2,3-dihydro-[1,4]dioxino[2,3-f]quinolin-10-yl)oxy)phenyl)-3-cyclopropylurea], the IC50 in assay [1] (read-out: VEGFR-2 IC50) and in assay [2] (read-out: RET IC50) was under 50 nM each time.
In the case of `CC1(C)CCN(CCCOc2cc3nccc(Oc4ccc(NC(=O)NC5CC5)c(Cl)c4)c3c3c2OCCO3)CC1` [Example 59, 1-(2-chloro-4-((5-(3-(4,4-dimethylpiperidin-1-yl)propoxy)-2,3-dihydro-[1,4]dioxino[2,3-f]quinolin-10-yl)oxy)phenyl)-3-cyclopropylurea], the IC50 in assay [1] (read-out: VEGFR-2 IC50) and in assay [2] (read-out: RET IC50) was under 50 nM in each case.
Take `CC1(O)CCN(CCCOc2cc3nccc(Oc4ccc(NC(=O)NC5CC5)c(Cl)c4)c3c3c2OCCO3)CC1` [Example 60, 1-(2-chloro-4-((5-(3-(4-hydroxy-4-methylpiperidin-1-yl)propoxy)-2,3-dihydro-[1,4]dioxino[2,3-f]quinolin-10-yl)oxy)phenyl)-3-cyclopropylurea]: the IC50 in assay [1] (read-out: VEGFR-2 IC50) and in assay [2] (read-out: RET IC50) was under 50 nM in each case.
Consider `CC1(N)CCN(CCCOc2cc3nccc(Oc4ccc(NC(=O)NC5CC5)c(Cl)c4)c3c3c2OCCO3)CC1` [Example 61, 1-(4-((5-(3-(4-amino-4-methylpiperidin-1-yl)propoxy)-2,3-dihydro-[1,4]dioxino[2,3-f]quinolin-10-yl)oxy)-2-chlorophenyl)-3-cyclopropylurea], for which the IC50 in assay [1] (read-out: VEGFR-2 IC50) and in assay [2] (read-out: RET IC50) was under 50 nM in each case.
Consider `COCCN(C)CCCOc1cc2nccc(Oc3ccc(NC(=O)NC4CC4)c(Cl)c3)c2c2c1OCCO2` [Example 62, 1-(2-chloro-4-((5-(3-((2-methoxyethyl)(methyl)amino)propoxy)-2,3-dihydro-[1,4]dioxino[2,3-f]quinolin-10-yl)oxy)phenyl)-3-cyclopropylurea], for which the IC50 in assay [1] (read-out: VEGFR-2 IC50) and in assay [2] (read-out: RET IC50) was under 50 nM throughout.
Turning to `CN(CCCOc1cc2nccc(Oc3ccc(NC(=O)NC4CC4)c(Cl)c3)c2c2c1OCCO2)C1CCC1` [Example 63, 1-(2-chloro-4-((5-(3-(cyclobutyl(methyl)amino)propoxy)-2,3-dihydro-[1,4]dioxino[2,3-f]quinolin-10-yl)oxy)phenyl)-3-cyclopropylurea], the IC50 in assay [1] (read-out: VEGFR-2 IC50) and in assay [2] (read-out: RET IC50) was under 50 nM in each case.
As for `CN(C)CCCCCCOc1cc2nccc(Oc3ccc(NC(=O)NC4CC4)c(Cl)c3)c2c2c1OCCO2` [Example 64, 1-(2-chloro-4-((5-((6-(dimethylamino)hexyl)oxy)-2,3-dihydro-[1,4]dioxino[2,3-f]quinolin-10-yl)oxy)phenyl)-3-cyclopropylurea], the IC50 in assay [1] (read-out: VEGFR-2 IC50) and in assay [2] (read-out: RET IC50) was under 50 nM in each case.
On to `O=C(Nc1ccc(Oc2ccnc3cc(OC4CCOC4)c4c(c23)OCCO4)cc1Cl)NC1CC1` (stereo not drawn) [Example 66, 1-(2-chloro-4-((5-((tetrahydrofuran-3-yl)oxy)-2,3-dihydro-[1,4]dioxino[2,3-f]quinolin-10-yl)oxy)phenyl)-3-cyclopropylurea], for which the IC50 in assay [1] (read-out: VEGFR-2 IC50) and in assay [2] (read-out: RET IC50) was under 50 nM throughout.
With `COCCOc1cc2nccc(Oc3ccc(NC(=O)NC4CCC4)c(Cl)c3)c2c2c1OCCO2` [Example 70, 1-(2-chloro-4-((5-(2-methoxyethoxy)-2,3-dihydro-[1,4]dioxino[2,3-f]quinolin-10-yl)oxy)phenyl)-3-cyclobutylurea], the IC50 in assay [1] (read-out: VEGFR-2 IC50) and in assay [2] (read-out: RET IC50) was under 50 nM each time.
In the case of `COCCCOc1cc2nccc(Oc3ccc(NC(=O)NC4CCC4)c(Cl)c3)c2c2c1OCCO2` [Example 72, 1-(2-chloro-4-((5-(3-methoxypropoxy)-2,3-dihydro-[1,4]dioxino[2,3-f]quinolin-10-yl)oxy)phenyl)-3-cyclobutylurea], the IC50 in assay [1] (read-out: VEGFR-2 IC50) and in assay [2] (read-out: RET IC50) was under 50 nM in each case.
`O=C(Nc1ccc(Oc2ccnc3cc(OCCCN4CCOCC4)c4c(c23)OCCO4)cc1Cl)NC1CCC1` [Example 74, 1-(2-chloro-4-((5-(3-morpholinopropoxy)-2,3-dihydro-[1,4]dioxino[2,3-f]quinolin-10-yl)oxy)phenyl)-3-cyclobutylurea]: the IC50 in assay [1] (read-out: VEGFR-2 IC50) and in assay [2] (read-out: RET IC50) was under 50 nM throughout.
Turning to `O=C(Nc1ccc(F)cc1)Nc1ccc(Oc2ccnc3cc(OCCCN4CCOCC4)c4c(c23)OCCO4)cc1` [Example 77, 1-(4-fluorophenyl)-3-(4-((5-(3-morpholinopropoxy)-2,3-dihydro-[1,4]dioxino[2,3-f]quinolin-10-yl)oxy)phenyl)urea], the IC50 in assay [1] (read-out: VEGFR-2 IC50) and in assay [2] (read-out: RET IC50) was under 50 nM throughout.
For the molecule `O=C(Nc1ccc(Oc2ccnc3cc(OCCCN4CCOCC4)c4c(c23)OCCO4)cc1)Nc1ccc(F)cc1F` [Example 78, 1-(2,4-difluorophenyl)-3-(4-((5-(3-morpholinopropoxy)-2,3-dihydro-[1,4]dioxino[2,3-f]quinolin-10-yl)oxy)phenyl)urea], the IC50 in assay [1] (read-out: VEGFR-2 IC50) and in assay [2] (read-out: RET IC50) was under 50 nM throughout.
Turning to `CNC(=O)Nc1ccc(Oc2ccnc3cc(OC)c4c(c23)OCCO4)cc1Cl` [Example 79, 1-(2-chloro-4-((5-methoxy-2,3-dihydro-[1,4]dioxino[2,3-f]quinolin-10-yl)oxy)phenyl)-3-methylurea], the IC50 in assay [1] (read-out: VEGFR-2 IC50) and in assay [2] (read-out: RET IC50) was under 50 nM throughout.
Consider `CCNC(=O)Nc1ccc(Oc2ccnc3cc(OC)c4c(c23)OCCO4)cc1Cl` [Example 80, 1-(2-chloro-4-((5-methoxy-2,3-dihydro-[1,4]dioxino[2,3-f]quinolin-10-yl)oxy)phenyl)-3-ethylurea], for which the IC50 in assay [1] (read-out: VEGFR-2 IC50) and in assay [2] (read-out: RET IC50) was under 50 nM in each case.
In the case of `CCCNC(=O)Nc1ccc(Oc2ccnc3cc(OC)c4c(c23)OCCO4)cc1Cl` [Example 81, 1-(2-chloro-4-((5-methoxy-2,3-dihydro-[1,4]dioxino[2,3-f]quinolin-10-yl)oxy)phenyl)-3-propylurea], the IC50 in assay [1] (read-out: VEGFR-2 IC50) and in assay [2] (read-out: RET IC50) was under 50 nM throughout.
For `COc1cc2nccc(Oc3ccc(NC(=O)NC4CC4)c(F)c3)c2c2c1OCCO2` [Example 84, 1-cyclopropyl-3-(2-fluoro-4-((5-methoxy-2,3-dihydro-[1,4]dioxino[2,3-f]quinolin-10-yl)oxy)phenyl)urea], the IC50 in assay [1] and in assay [2] was under 50 nM in each case.
As to `CNC(=O)Nc1ccc(Oc2ccnc3cc(OCCCN4CCOCC4)c4c(c23)OCCO4)cc1Cl` [Example 85, 1-(2-chloro-4-((5-(3-morpholinopropoxy)-2,3-dihydro-[1,4]dioxino[2,3-f]quinolin-10-yl)oxy)phenyl)-3-methylurea], the IC50 in assay [1] and in assay [2] was under 50 nM in each case.
